Experimental findings from the METLIN SMRT retention time set (Domingo-Almenara et al. 2019) are described below.

This data set in a line: gradient 5% acetonitrile 3 min, to 50% in 2 min, to 85% in 15 min, held 3 min, 100 µL/min. The note with it: column: Zorbax Extend-C18 2.1 x 50 mm; eluents: water / acetonitrile, 0.1% formic acid. A digest of the protocol:
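Pure standards were run in mixtures of ~100 molecules by HPLC coupled to a quadrupole time-of-flight mass spectrometer. The column was a Zorbax Extend-C18 (2.1 × 50 mm, 1.8 μm) at 100 μL/min, with water and acetonitrile each containing 0.1% formic acid, in positive and negative ionization mode. Dead and dwell volumes were 40 μL and 900 μL. Retention time was taken from computationally picked adduct peaks, each manually inspected, with data collected over 3 months.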
Compound `O=C(NC1CCCCCCC1)C1CCN(C(=O)c2cc(-c3ccncc3)n[nH]2)CC1` yielded an RP-LC retention time of 648 s.

For the compound `COc1ccccc1CNC(=O)c1sc(-c2cn(C(C)C)c3ncccc23)nc1C`, the RP-LC retention time came to 1030 s.

With `O=C(Cc1cn2cc(Cl)ccc2n1)Nc1ccccc1`, the RP-LC retention time came to 614 s.

As to `COc1ccc(/C=C\c2onc(C)c2NC(C)=O)cc1S(=O)(=O)N1CCN(c2ccccn2)CC1`, the RP-LC retention time is 612 s.

For `CCc1ccc(NC(=O)C2CCCN(c3ncnc4c3nc3n4CCCCC3)C2)cc1` (stereo not given), the RP-LC retention time was 824 s.

In turn, `COc1cc(OC)cc(N2C(=O)C3N=NN(Cc4nc(-c5ccc(OC)cc5OC)no4)C3C2=O)c1` (stereo not given) gave an RP-LC retention time of 865 s.

Consider `CC(C)CCC(=O)N1CCC2(CC1)CC(C)(O)CCO2` (stereo not given), for which the RP-LC retention time was 698 s.

`COc1ccc(C)cc1NC(=O)N1CCCC1c1cc(C)on1` (stereo not given) showed an RP-LC retention time of 863 s.

The compound `Cc1noc(CNC(=O)CN(C)c2nc3c(C)ccc(C)c3s2)n1` came in with an RP-LC retention time of 772 s.

Consider `Cc1noc(C)c1CCC(=O)N1CC(c2nc3ccccc3[nH]2)C1`, for which the RP-LC retention time is 552 s.

Turning to `CCOc1ccc(-c2ccc(=O)n(CCc3nc(-c4cccc(OC)c4OC)no3)n2)cc1`, the RP-LC retention time is 952 s.

Compound `COc1ccc(Nc2c(C(=O)N3CCCCC3C)cnc3nc(C)ccc23)cc1` (stereo not given) yielded an RP-LC retention time of 639 s.

On to `O=C(CC1CCCC1)N1CCC(N(Cc2cccnc2)C2CCOCC2)CC1`, for which the RP-LC retention time turned out to be 604 s.

`COc1ccc(-n2cc(C(=O)OCc3cccnc3)c3ccccc3c2=O)cc1`: the RP-LC retention time was determined as 745 s.

`CCOc1nccnc1NC1CCN(C(=O)c2cccs2)CC1` displayed an RP-LC retention time of 921 s.

Take `Cc1ccsc1C(=O)NCCc1cn(CC(C)C)c2ncccc12`: the RP-LC retention time was determined as 844 s.

As for `COc1ccc(CNC(=O)c2ccc3c(c2)nc2n3CCN(c3ccccc3)C2=O)cc1`, the RP-LC retention time was determined as 732 s.

In turn, `Cc1cc(S(=O)(=O)N2CCN(c3cnn4c(C)nnc4c3)CC2)ccc1F` had an RP-LC retention time of 708 s.

With `CCCCNC(=O)Cn1c(N)nc(CC)cc1=O`, the RP-LC retention time came to 579 s.

`CS(=O)(=O)N1CCC(C(=O)Nc2ccccc2Br)Oc2ccccc21` (stereo not given) came in with an RP-LC retention time of 996 s.

`CC(C)c1ccc(NC(=O)C2CCN(C(=O)C(C)(C)C)CC2)cc1` showed an RP-LC retention time of 907 s.

Regarding `O=C(CN1C(=O)COc2ccc(C(=O)N3CCCC3)cc21)NCCN1CCCCCC1`, the RP-LC retention time was found to be 589 s.

Compound `COC(=O)c1ccc(C(=O)NCCN2CCN(C(=O)OC(C)(C)C)CC2)cc1` displayed an RP-LC retention time of 580 s.

In turn, `Cc1onc(-c2ccccc2)c1-c1ccc(S(N)(=O)=O)cc1` showed an RP-LC retention time of 869 s.

Take `COc1ccc(NC(=O)C2(C)CCCCC(=O)N2)cc1` (stereo not given): the RP-LC retention time turned out to be 640 s.

The compound `CC(=O)NCc1ccc(-c2noc(-c3cccc(Br)c3)n2)s1` showed an RP-LC retention time of 922 s.

With `COc1ccc(NC(=O)Cn2c(N3CCCC3)nc(C)cc2=O)cc1OC`, the RP-LC retention time was 601 s.

With `CCC(=O)N1CCc2cc(N3CC(C(=O)NCc4cccnc4)CC3=O)ccc21` (stereo not given), the RP-LC retention time was determined as 579 s.

With `O=C(c1ccco1)N1CCN=C1N1CCN(c2cccc(Cl)c2)CC1`, the RP-LC retention time turned out to be 696 s.

On to `CC(C)CCNC(=O)N1CCN(c2ncccc2-c2nnc(C3CC3)o2)CC1`, for which the RP-LC retention time came to 765 s.

`Cc1nc(-c2ccc(N3CCN(C(=O)COc4ccc(Cl)cc4)CC3)nc2)sc1C` had an RP-LC retention time of 949 s.

Turning to `CCOC(=O)C1CCN(C(=O)CCc2cc3cc(OC)ccc3[nH]c2=O)CC1`, the RP-LC retention time was found to be 701 s.

As to `O=C(NCc1cccc(C(F)(F)F)c1)C1CCCN(c2nccnc2Sc2ccccc2)C1` (stereo not given), the RP-LC retention time was 1100 s.

With `Cc1ccc(-n2ncc3c(NCCCN(C)C)ncnc32)cc1Cl`, the RP-LC retention time was 670 s.

The compound `COc1ccc(NC(=O)c2ccc3[nH]c4c(c3c2)CN(C(C)=O)CC4)c(OC)c1` registered an RP-LC retention time of 690 s.

`Cc1c(CCC(=O)NCc2cccnc2)c(=O)n2nc(-c3ccc(Cl)cc3)nc2n1C` gave an RP-LC retention time of 632 s.

`Cc1ccc(CNS(=O)(=O)c2cc3c4c(c2)CCC(=O)N4CCC3)cc1` displayed an RP-LC retention time of 868 s.

The compound `COCCn1cc(CCNC(=O)c2cc(F)cc(F)c2)c2cccnc21` returned an RP-LC retention time of 737 s.

`Cc1ccc(NC(=O)N2CCC(n3c(-c4ccoc4)nc4cccnc43)C2)cc1F` (stereo not given) yielded an RP-LC retention time of 774 s.

`CCc1ccc2nc(Nc3ncc4c(n3)CC(c3ccc(F)cc3)CC4=O)nc(C)c2c1` (stereo not given) came in with an RP-LC retention time of 835 s.

Consider `COc1ccc(F)cc1S(=O)(=O)N1CCC2(CC1)c1nccn1CCN2C`, for which the RP-LC retention time was found to be 564 s.

`Cc1cccc(NS(=O)(=O)c2c(C)sc(C)c2-c2n[nH]c(C)c2C)c1`: the RP-LC retention time was 1040 s.

Compound `Cn1nc(CNC(=O)COc2ccc(Cl)cc2)c2ccccc21` came in with an RP-LC retention time of 853 s.

Compound `CCOc1ccc(-c2csc(NC(=O)CCCOc3ccccc3C)n2)cc1` came in with an RP-LC retention time of 1240 s.

Take `O=C(NC1CCCN(c2ccc(=O)[nH]n2)C1)c1cc2cc(Cl)ccc2[nH]1` (stereo not given): the RP-LC retention time came out at 743 s.

Regarding `CCOCCCNC(=O)N1CCCC(c2nn[nH]n2)C1` (stereo not given), the RP-LC retention time is 591 s.

The compound `CCOC(=O)N1CCN(C(=O)C2CN(c3nc4ccc(OC)cc4s3)C2)CC1` showed an RP-LC retention time of 650 s.

As for `COc1ccc(OCc2noc(CNC(=O)CSc3nc4ccccc4o3)n2)cc1`, the RP-LC retention time is 806 s.

Compound `COc1ccc(NC(=O)c2cnc(N3CCN(c4ccccc4F)CC3)nc2N)cc1` displayed an RP-LC retention time of 684 s.

In turn, `COc1ccc(CCN(C)CCc2ccc(OC)c(OC)c2)cc1OC` showed an RP-LC retention time of 668 s.

`Cc1cc(OCC(=O)Nc2ccccc2C#N)nc(-c2ccc(F)cc2)n1` returned an RP-LC retention time of 964 s.

In turn, `Cc1c(C(=O)O)nnn1-c1ccc2noc(-c3ccccc3)c2c1` gave an RP-LC retention time of 775 s.

`O=C([C@@H]1C[C@H](Oc2cccnc2)CN1C(=O)c1ccoc1)N1CCCC1` gave an RP-LC retention time of 553 s.

`COc1cccc(CNC(=O)c2ccc3ncnc(N4CCCC4)c3c2)c1` returned an RP-LC retention time of 621 s.

Regarding `COc1ccc2c(c1)[C@H]1OCCC[C@H]1C(c1cccc(O)c1)N2` (stereo not given in full), the RP-LC retention time came out at 793 s.

As for `CCS(=O)(=O)N1CCc2nc(-c3ccc(OC)cc3)ncc2C1`, the RP-LC retention time came out at 805 s.

Compound `Cc1cc(C)nc(N2CCN(c3nc(C)cc(C)c3C#N)CC2)n1` had an RP-LC retention time of 990 s.

With `Cc1ccc(C)c(NC(=O)Nc2ccc3nncn3c2)c1`, the RP-LC retention time is 747 s.

As to `CC(C)(C)c1ccc(OCC(=O)Nc2ccnn2Cc2ccco2)cc1`, the RP-LC retention time worked out at 1010 s.

Compound `CCOC(=O)c1cc(NC(=O)Nc2cccc(OC)c2)c(C)nc1C` gave an RP-LC retention time of 701 s.

In the case of `CCOC(=O)c1nc2cc(C)c(C)cc2nc1N1CCN(c2ccccn2)CC1`, the RP-LC retention time is 730 s.

Consider `Cc1ccccc1NC(=O)N1CCC(c2cc3n(n2)CCCN(C)C3=O)CC1`, for which the RP-LC retention time turned out to be 660 s.

The compound `Cc1ccc(-n2ccnc2SCc2nc(-c3cccc(C)c3)no2)cc1` yielded an RP-LC retention time of 1020 s.

`Cc1cc(C(=O)NCc2ccc(N(C)C)cc2)c2c(=O)n(C)c(=O)n(C)c2n1` showed an RP-LC retention time of 578 s.

`CN(C)C(=O)c1cc2c(s1)CCC(C(=O)NCc1ccncc1)C2` (stereo not given) had an RP-LC retention time of 556 s.

`CCc1cccc(NS(=O)(=O)c2cn(CC(C)C)c3ncccc23)c1` gave an RP-LC retention time of 1070 s.

Compound `O=C(c1ccco1)N1CCCC1c1nc(-c2cccc(C(F)(F)F)c2)no1` (stereo not given) returned an RP-LC retention time of 1020 s.

`Cc1ccc(N2CCC(NC(=O)c3cc(F)cc(F)c3)C2=O)cc1C` (stereo not given) yielded an RP-LC retention time of 943 s.

Turning to `Cc1csc(-c2cc(S(=O)(=O)NCc3ccc4c(c3)OCO4)cn2CC(=O)N2CCCC2)n1`, the RP-LC retention time amounted to 835 s.

As for `CCCC(=O)Nc1ccc(CCc2nc3ccc(C(=O)NCCOC)cc3[nH]2)cc1`, the RP-LC retention time was determined as 599 s.

Turning to `Cc1cc2c(cc1C)[n+](=O)c(C(=O)/C=C/c1ccccc1[N+](=O)[O-])c(C)n2[O-]`, the RP-LC retention time stood at 806 s.

The compound `COc1ccc(-c2noc(C3CCCN3C(=O)Nc3ccc(OC)cc3OC)n2)cc1` (stereo not given) yielded an RP-LC retention time of 952 s.

With `Cc1nnc2c(=O)n(CC(=O)NCCN3CCc4ccccc4C3)c3cccnc3n12`, the RP-LC retention time was 738 s.

As to `Cc1cccc2nnc(N3CCC(C(=O)Nc4ccc(Cl)cc4)CC3)n12`, the RP-LC retention time is 656 s.

`CC1CCN(S(=O)(=O)c2cccn(CC(=O)N3CCCc4ccccc43)c2=O)CC1` showed an RP-LC retention time of 910 s.

Compound `COC(=O)CNC(=O)c1cc2c(=O)n(C)c3ccccc3n2n1` had an RP-LC retention time of 676 s.

As to `O=S(=O)(Nc1ccc(Cl)cc1)c1ccc2nncn2c1`, the RP-LC retention time was 712 s.

Compound `Cn1cnc(S(=O)(=O)N2CCc3c(c(-c4nncn4Cc4ccccc4)nn3C)C2)c1` displayed an RP-LC retention time of 682 s.

`COc1ccc(CNC(=O)C2CCCN(c3ncnc4c3nc3n4CCCCC3)C2)cc1` (stereo not given) registered an RP-LC retention time of 732 s.

`COc1ccc(C2C(=O)N(C3CCCCC3)CC(=O)N2Cc2ccc3c(c2)OCO3)cc1OC` (stereo not given) yielded an RP-LC retention time of 894 s.
